The text below walks through data of PubChem BioAssay (NCI).

What all share (experiment): NCI-60 cell line screen, 48 h
The test system of test [1] is HCC-2998 colon.
The test system of test [2] is COLO 205 colon.
Test [3] concerns 786-0 renal.
In test [4] the test system is T-47D breast.
In test [5] the test system is SF-268 CNS.
The subject of test [6] is A549 NSCLC.
Test [7] relates to NCI/ADR-RES ovarian.
Test [8] deals with EKVX NSCLC.
For test [9], the system named is NCI-H23 lung.
The test system of test [10] is PC-3 prostate.
Test [11] concerns HOP-62 NSCLC.
Test [12] has as its system HOP-92 NSCLC.
For test [13], the system named is BT-549 breast.

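Growth conditions: 96-well plates. Treatment: test compound, 48 hours, 5 concentrations. Analysis: linear interpolation between bracketing concentrations; unreached endpoints set to highest concentration. GI50: concentration for 50% inhibition of growth. TGI: total growth inhibition.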 Where only a bound is given, the exact number is not on record here.

`Cc1ccc(Cl)c2[nH]c(-c3ccccc3)cc(=O)c12`: the TGI in [1] was greater than 100 µM; in test [2] it was greater than 100 µM; in [3], greater than 100 µM; in test [4], greater than 100 µM; in test [5], 79.7 µM; in test [6], 72 µM. For the same molecule, the TGI is greater than 100 µM in test [7]; 45 µM in test [8]; greater than 100 µM in test [9]; greater than 100 µM in [10]; greater than 100 µM in test [11].
For the molecule `CC1CCC(n2c3cnccc3c3cnc(Nc4ccc5c(n4)CCN(C(=O)CO)C5)nc32)CC1` (stereo not drawn), the figures for the GI50 in test [12], in test [6] and in test [8] were greater than 100 µM, 0.882 µM and greater than 100 µM, respectively. Also, the TGI in test [12], in test [6] and in test [8] was greater than 100 µM throughout.
As to `CC(C)CCS(=O)(=O)OCCCCOS(=O)(=O)CCC(C)C`, the TGI in test [1], in test [2], in test [3], in [5], in [6] and in test [8] was greater than 100 µM in each case. Moreover, the TGI is greater than 100 µM in test [9] and 26.9 µM in test [11].
On to `CCCCC#C[I+]c1ccccc1`, for which the TGI in test [1] was 34.4 µM; in [2] it was 28.7 µM; in test [12], 24.1 µM; in test [3], 28.8 µM; in test [5] it was 39.7 µM; in test [6], 33.8 µM. Also, the TGI was 33.4 µM in test [8], 27.3 µM in test [9] and 37.6 µM in [11].
As to `O=C1CCCc2cc3c(cc21)CC1(Cc2ccccc2C1)C3`, the TGI in test [1] worked out at 39.3 µM; in [2], 5.11 µM; in test [12], 53 µM; in [3], 29.6 µM; in test [4], 96.9 µM; in test [6], 43.3 µM. Further, the TGI was greater than 100 µM in [7]; greater than 100 µM in [8]; greater than 100 µM in [9]; greater than 100 µM in test [10]; 32.6 µM in test [11].
For the molecule `COc1cc2c(c(OC)c1OC)C(=O)[C@@H]1[C@H]2N1C(N)=O`, the TGI in test [1], in test [2], in test [3], in test [4], in [5] and in [6] was greater than 100 µM each time. For the same molecule, the TGI in test [7], in [8], in test [9], in [10] and in [11] was greater than 100 µM in each case.
For `COc1cccc(C(=O)O[C@H]2[C@@H]3[C@]4(OC(C)=O)CO[C@@H]4C[C@H](O)[C@@]3(C)C(=O)[C@H](OC(C)=O)C3=C(C)[C@@H](OC(=O)[C@H](O)[C@@H](NC(=O)OC(C)(C)C)c4ccco4)C[C@]2(O)C3(C)C)c1`, the TGI is 0.119 µM in [2]; greater than 37.5 µM in test [3]; greater than 37.5 µM in test [5]; greater than 34.1 µM in test [13]; greater than 37.5 µM in test [6]; greater than 18.3 µM in [7]. The TGI was greater than 28.9 µM in test [8], greater than 37.5 µM in test [9] and greater than 32.7 µM in test [11].
For `O=C1/C(=C/c2ccccc2)N=C2Sc3c(nc[nH]c3=O)N12`, the TGI in test [1], in [2], in test [12], in [3], in [4] and in [5] was greater than 100 µM each time. The TGI in test [6], in test [7], in [8], in [9], in [10] and in test [11] was greater than 100 µM in each case.
As for `CCOC(=O)c1cn2c(n1)sc1cccc(C)c12`, the TGI in test [1], in [2], in test [3], in [5], in [13] and in test [6] was greater than 100 µM each time. Further, the TGI in test [7], in [8], in test [9], in test [10] and in test [11] was greater than 100 µM in each case.
As for `C[C@]12CCC(O)CC1=CC[C@@H]1[C@@H]2CC[C@]2(C)C(=O)[C@H](n3ccnc3)C[C@@H]12` (stereo partly drawn), the TGI in [2] is 71 µM; in test [12], greater than 100 µM; in test [3], greater than 100 µM; in test [5], greater than 100 µM; in [6] it was greater than 100 µM; in test [7], greater than 100 µM. Besides, the TGI in test [8], in test [9] and in test [10] was greater than 100 µM throughout.
Turning to `N#Cc1c(N2CCCC2)ncn(-c2ccccc2)c1=O`, the TGI in test [1], in [2], in [12], in test [3], in [4] and in test [5] was greater than 100 µM each time. Also, the TGI in [6], in [7], in test [8], in [9], in [10] and in test [11] was greater than 100 µM in each case.
As for `COc1ccc2c(c1)/C(=C/CCN(C)C)c1ccccc1S2`, the TGI in test [1] is greater than 100 µM; in [2] it was 38 µM; in test [12], greater than 100 µM; in test [4], greater than 100 µM; in test [5], greater than 100 µM; in test [6], greater than 100 µM. Further, the TGI in test [7], in test [9] and in test [10] was greater than 100 µM throughout.
As for `Cc1c(O)c(O)cc[n+]1C1OC(CO)C(O)C1O` (stereo not drawn), the TGI in test [1], in test [2], in test [12], in test [3], in test [5] and in [6] was greater than 100 µM throughout. The TGI in test [8] and in test [9] was greater than 100 µM throughout.
Take `O=C1CCCSC(=O)N1Cc1ccccc1`: the TGI in test [1], in [2], in [12], in test [3], in [4] and in test [5] was greater than 100 µM each time. The TGI in test [6], in [7], in test [8], in test [9], in test [10] and in test [11] was greater than 100 µM each time.
